Where two headings read alike, the source gives them in different places.
What was measured:
[1] = test system: AGS cells; assay: Muse Annexin V apoptosis assay; format: cell-based, human; conditions: 48 h, 6 µM AM630, 10 µM others
Source text: (§1) After the specified drug treatments, the cells were processed using the Muse Annexin V/Dead Cell Assay Kit (Luminex Corporation, Austin, USA) for quantitative analysis of live, early/ late apoptotic, and dead cells on a Muse Cell Analyzer. Briefly, the assay utilized Annexin V to detect phosphatidylserine on the external membrane of apoptotic cells. The fluorescent signal emitted by dye-conjugated antibodies was detected by flow cytometry technology (Muse Cell Analyzer, Luminex Corporation, Austin, USA). 7-Amino-Actinomycin D (7-AAD) dead cell marker was also used. The cells were then analyzed according to the user’s guide. […] After 48 h treatments the cells were processed according to the user’s guide and analyzed with the Muse caspase-3/7 kit (Millipore).The assay provides the relative percentage of living, early/late apoptotic or dead cells.

[2] = test system: HGC27-S cells; assay: Muse Annexin V apoptosis assay; format: cell-based, human; conditions: 48 h, 6 µM AM630, 10 µM others
Source text: as §1

[3] = test system: CB2R; set-up: method as in PMID 7776818, PMID 10188977, PMID 36657299, PMID 20393015; conditions: cited from earlier work
[4] = test system: HGC27-S/R and AGS cell lines; assay: Autophagy assay (western blot of autophagy proteins); format: cell-based, human; conditions: 48 h, 1 and 10 µM (AM630 1 and 6 µM)
Method: Cells were rinsed with ice-cold lysis buffer (50 mM Tris,10 mM EDTA, 1% v/v Triton-X100), supplemented with protease inhibitor cocktail set III (80 µM aprotinin, 5 mM bestatin, 1.5 mM leupeptin, 1 mM pepstatin; Sigma-Merck, St. Louis, MO), 2 mM phenylmethyl sulfonyl fluoride and 1 mM Na3VO4, then sonicated and centrifuged at 13,000 g for 10 min at 4 °C. 20 µg protein extracts were subjected to SDS-PAGE and probed with the following antibodies: anti-ATG5 (#ab108327, diluted 1:1000), anti-ATG7 (#ab52472, diluted 1:5000), anti-ATG12 (#ab303488, diluted 1:1000), anti-Beclin (#ab210498, diluted 1:1000), anti-p62 (#ab109012, diluted 1:10000), anti-LC3 (#ab192890, diluted 1:2000)(all from Abcam, Cambridge, UK) or anti-β-tubulin antibody (#sc-5274, diluted 1:1000; Santa Cruz Biotechnology Inc.,Santa Cruz, CA, USA), followed by incubation with a peroxidase conjugated secondary antibody (Bio-Rad Laboratories, Hercules, CA). After washing in Tris-buffered saline (TBS)-Tween 0.1% v/v solution, proteins were detected by enhanced chemiluminescence (Bio-Rad Laboratories).Total protein expression was quantified using the ImageJ software (http://rsb.info.nih.gov/ij/). The expression level of each of the investigated protein was normalized to the β-tubulin level.

[5] = test system: NCI-N87 cells; assay: MTT cytotoxicity assay; format: cell-based, human; conditions: read-out: Cytotoxic activity IC50±SEM
[6] = test system: HGC27-R cells; assay: Muse Ki67 cell proliferation assay; format: cell-based, human; conditions: for percentage of Ki67+ cells: combined with PTX (10 µM compound; 6 µM AM630)
Source text: (§2) After the specified drug treatments, the cells were processed with the Muse Ki67 cell proliferation kit, which identified actively proliferating cells based on the expression of Ki67, a nuclear protein present in the active phases of the cell cycle (G1, S, G2, and M phases) and absent in the resting G0 phase. The Muse Ki67 Proliferation Assay was used with the Guava Muse Cell Analyzer according to the manufacturer’s instructions (Luminex Corporation, Austin, USA). Briefly, the cells were stained after fixation and permeabilization procedures, using Hu Ki67 or Hu IgG1 control fluorochrome-conjugated antibodies to distinguish Ki67(+) or Ki67(-) cells, respectively. The software provided the percentage of both Ki67(+) and Ki67(-) cells.

[7] = test system: AGS cells; assay: MTT cytotoxicity assay; format: cell-based, human; conditions: read-out: Cytotoxic activity IC50±SEM
Method: (§3) Cell viability was checked with the MTT assay at 48 h and 72 h [24]in HGC27-S/R and AGS gastric cancer cell lines. On day 1, 5000 cells/well were seeded into 96-well plates in a volume of 100 µL. On day 2, each drug was added at the concentrations: 0.1µM, 1µM, 10µM, 30µM, 50µM, 100µM. In all the experiments, the various drug-solvents (ethanol, DMSO) were added in each control to evaluate a possible solvent cytotoxicity. After the established incubation time with drugs (48 h, 72 h), MTT (0.5 mg/mL) was added to each well, and after 3 h incubation at 37 °C, the supernatant was removed. The formazan crystals were solubilized using 100 µL of DMSO and the absorbance values at 570 and 630 nm were determined on the microplate reader Victor 3 from PerkinElmer Life Sciences. Results are expressed as mean ± SD of 3 independent experiments in triplicate.

[8] = test system: HGC27-S cells; assay: MTT cytotoxicity assay; format: cell-based, human; conditions: read-out: Cytotoxic activity IC50±SEM
Method: as §3

[9] = test system: HGC27-R cells; assay: MTT cytotoxicity assay; format: cell-based, human; conditions: read-out: Cytotoxic activity IC50±SEM
Method: as §3

[10] = test system: NCI-N87 cells; assay: Muse Ki67 cell proliferation assay; format: cell-based, human
Source text: as §2

[11] = test system: AGS cells; assay: VEGFA in cell culture medium (ELISA); format: cell-based, human; conditions: 10 µM, 48 h, untreated 8.3
Method: (§4) The amount of VEGFA secreted in the culture medium by HGC27-S/R and AGS treated cells was measured using a highly sensitive Enzyme-Linked Immunosorbent Assay (ELISA), Quantikine Kit ELISA (R&D Systems, Minneapolis, MN, USA), according to the manufacturer’s instructions. The measured values were normalized to the number of cells.

[12] = test system: HGC27-R cells; assay: VEGFA in cell culture medium (ELISA); format: cell-based, human; conditions: 10 µM, 48 h, untreated 10.5
Method: as §4

[13] = test system: CB1R; conditions: cited from earlier work
[14] = NCI-N87, single treatment (10 µM compound; 2 nM PTX), control 78.2%
[15] = representative flow cytometry chart, 48 h, 10 µM CC48, PTX, single or combined as labelled

SMILES	increase in apoptotic cells compared to untreated cells (Annexin V) [1]	increase in apoptotic cells compared to untreated cells (Annexin V) [2]	EC50 [3]	expression of autophagy proteins (ATG5, ATG7, ATG12, Beclin-1, p62, LC3-II) [4]	IC50 ([5]; 48h)	IC50 ([5]; 72h)	percentage of Ki67+ cells [6]	IC50 ([7]; 48h)	IC50 ([7]; 72h)	IC50 ([8]; 48h)	IC50 ([8]; 72h)	IC50 ([9]; 48h)	IC50 ([9]; 72h)	percentage of Ki67+ cells [10, 14]	VEGFA secretion in culture medium [11]	VEGFA secretion in culture medium [12]	further results
COc1ccc(C(=O)c2c(C)n(CCN3CCOCC3)c3cc(I)ccc23)cc1 [AM630, reference compound]	8 fold	8 fold	0.0009 µM	dose-dependent increase of autophagic proteins	22.7 µM	15.6 ± 0.26 µM	51.3%	13.4 µM	7.5 ± 1.2 µM	20.4 µM	13.7 ± 1.4 µM	19.6 ± 6.15 µM	19.1 ± 0.93 µM	–	–	–	–
CCCCCNc1ccccc1C(=O)NC12CC3CC(CC(C3)C1)C2 [ASF151]	–	–	0.56 µM	less potent inducer of some autophagy-related proteins	33.1 µM	29.3 ± 3.84 µM	–	33 µM	42.3 ± 2.2 µM	49 µM	30.1 ± 0.95 µM	27.4 µM	28 ± 0.63 µM	68.3%	4.4 pg/mL/cell	8 pg/mL/cell	CB1R affinity % at 1µM (percentage of displacement at 1 µM) ([13]; 1 µM): 31%^23
O=C(NC12CC3CC(CC(C3)C1)C2)c1ccccc1OCc1ccccc1 [CC48]	6 fold	2 fold	0.124 µM	–	–	–	67.9%	–	–	–	–	21.01 ± 0.002 µM	–	60.9%	5.8 pg/mL/cell	6.5 pg/mL/cell	IC50 ([5]; Homo sapiens, 48h): 15.1 µM; IC50 ([5]; Homo sapiens, 72h): 9.42 ± 0.22 µM; percentage of Ki67+ cells ([10]; NCI-N87, cotreatment with PTX, PTX alone 68.1%): 59.9%; Ki67(+) cells [6, 15]: 84.00%; Ki67(-) cells [6, 15]: 16.00%; IC50 ([7]; Homo sapiens, 48h): 57 µM; IC50 ([7]; Homo sapiens, 72h): 9.8 µM; IC50 ([8]; Homo sapiens, 48h): 11.6 µM; IC50 ([8]; Homo sapiens, 72h): 14.5 ± 0.34 µM; IC50 ([9]; Homo sapiens, 48 h): 21 µM; IC50 ([9]; Homo sapiens, 72 h): 21.2 ± 0.41 µM; Ki ([13]; ± SEM, read-out: CB1R affinity Ki): 0.2413 ± 0.0024 µM

Reference: article PMC12265377, “CC48 a new CB2R agonist/FAAH inhibitor dual drug blocks gastric cancer progression and overcomes paclitaxel resistance” (Journal of Experimental & Clinical Cancer Research : CR, 2025)
